Assay results as given in article PMC7215373, “Design, Synthesis, and Anticancer Evaluation of Novel Indole Derivatives of Ursolic Acid as Potential Topoisomerase II Inhibitors” (International Journal of Molecular Sciences, 2020).

Tests used:
[1] = test system: SMMC-7721 cells; test: ROS generation assay (DCFH-DA, flow cytometry); format: cell-based, human; conditions: 48 h, control 3.97%
Procedure: Reactive oxygen species (ROS), which can exert oxidative stress to cells and lead to disturbances in mitochondrial membrane potential, are important mediators for the induction of apoptosis in many cancer cells. To determine whether the apoptosis induced by compound 5f was associated with intracellular ROS level, SMMC-7721 cells treated with different concentrations of 5f were stained with the fluorescent probe DCFH-DA and analyzed by flow cytometry.
ROS generation assay was performed by using the reactive oxygen species assay kit (Beyotime Biotech., Shanghai, China). Intracellular ROS generation was tested through dichlorodihydro fluorescein diacetate (DCFH-DA) assay. DCFH-DA is taken up by SMMC-7721 cells, and then activated by esterase-mediated cleavage of acetate to form dichlorodihydro fluorescein (DCFH), which is trapped in the cells. DCFH is converted to fluorescein DCF in the presence of ROS. SMMC-7721 cells were seeded in six-well plates and incubated with different concentrations of compound 5f for 48 h. After removing the compound solution, cells were treated with 10 μM of DCFH-DA at 37 °C for 20 min. Subsequently, the cells were washed with PBS for three times and then exposed to light. Immediately after light exposure, the fluorescence intensity of dichlorofluorescein (DCF) was measured with excitation at 488 nm and emission at 525 nm by a flow cytometry (Becton-Dickinson FACSCalibur, Franklin Lakes, NJ, USA).

[2] = test system: HepG2 cells; test: MTT cytotoxicity assay, HepG2; format: cell-based, human; conditions: 48 h exposure
Procedure: The in vitro cytotoxic activities of synthesized compounds were evaluated against two human hepatocarcinoma cell lines (SMMC-7721 and HepG2) and the human normal hepatocyte cell line (LO2) via MTT assay. All tested compounds were dissolved in DMSO and the stock solutions were diluted by DMEM medium before treatment of the cultured cells. […] Cell lines were obtained from American Tissue Culture Collection (ATCC). Briefly, different tumor cells were grown in DMEM medium supplemented with 10% fetal bovine serum, penicillin (100 U/mL), and streptomycin (50 μg/mL). Cells were harvested at log phase of growth and seeded in 96-well plates (100 μL/well at a density of 2 × 10^5 cells/mL). After 24 h incubation at 37 °C and 5% CO2 to allow cell attachment, cultures were exposed to various concentrations of the isolated compounds for 48 h. Finally, MTT solution (2.5 mg/mL in PBS) was added (40 μL/well). Plates were further incubated for 4 h at 37 °C, and the formazan crystals formed were dissolved by adding 150 μL/well of DMSO. Absorption at 570 nm was measured with an ELISA plate reader. […] Doxorubicin, camptothecin, and etoposide (VP-16) were co-assayed as positive controls.

[3] = molecular target: T1, DNA topoisomerase I (Bos taurus, UniProt F1MN93); test: Topoisomerase I relaxation assay (supercoiled pBR322); format: biochemical; conditions: 100 μM compound; read-out: Topo I Inhibition (%) 100 μM
T1 construct: purchased TaKaRa, Kyoto, Japan
T1 sequence (F1MN93 1-767): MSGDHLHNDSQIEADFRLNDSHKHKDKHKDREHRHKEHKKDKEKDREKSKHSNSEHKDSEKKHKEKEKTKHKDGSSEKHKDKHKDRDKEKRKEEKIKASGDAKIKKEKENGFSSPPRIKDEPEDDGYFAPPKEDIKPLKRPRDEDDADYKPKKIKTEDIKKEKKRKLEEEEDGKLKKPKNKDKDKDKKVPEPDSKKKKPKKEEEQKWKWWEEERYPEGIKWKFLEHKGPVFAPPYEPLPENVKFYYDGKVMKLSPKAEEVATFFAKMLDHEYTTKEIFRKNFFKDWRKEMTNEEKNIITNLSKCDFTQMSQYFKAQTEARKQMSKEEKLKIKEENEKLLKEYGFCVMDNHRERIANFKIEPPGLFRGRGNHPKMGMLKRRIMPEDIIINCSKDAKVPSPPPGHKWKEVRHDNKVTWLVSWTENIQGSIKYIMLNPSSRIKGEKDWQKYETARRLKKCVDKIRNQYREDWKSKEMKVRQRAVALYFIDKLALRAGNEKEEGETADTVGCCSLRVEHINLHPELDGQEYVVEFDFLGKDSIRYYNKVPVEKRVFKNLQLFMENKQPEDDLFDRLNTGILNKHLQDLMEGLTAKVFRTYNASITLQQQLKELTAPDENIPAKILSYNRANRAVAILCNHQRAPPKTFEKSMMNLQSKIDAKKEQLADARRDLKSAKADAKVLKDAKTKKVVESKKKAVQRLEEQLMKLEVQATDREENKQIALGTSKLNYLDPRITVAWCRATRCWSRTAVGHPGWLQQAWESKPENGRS
Procedure: The effect of the tested compounds on Topo I and II activities were evaluated by Topo I/II relaxation assays. The reaction products, relaxed DNA could be distinguished from supercoiled DNA by gel electrophoresis and visualized using gel imaging system. The activity of DNA topoisomerase I (TaKaRa, Kyoto, Japan) was determined by measuring the relaxation of supercoiled DNA pBR322 [32]. Camptothecin was used as a positive control. The reaction mixture was prepared according to the manufacture's protocol, and incubated at 37 °C for 30 min. The reactions were terminated by adding dye solution containing 1% SDS, 0.02% bromophenol blue and 50% glycerol. The mixtures were applied to 1% agarose gel and subjected to electrophoresis for 1 h, in 1× TAE buffer (40 mM Tris-acetate, 1 mM EDTA). Gels were stained for 30 min in 60 mL 1× TAE buffer with ethidium bromide (0.5 μg/mL). DNA bands were visualized by transillumination with UV light and then photographed by a Gel Doc XR+ System (BIO-RAD, Hercules, CA, USA).

[4] = test system: SMMC-7721 cells; test: Annexin V-FITC/PI staining apoptosis assay by flow cytometry; format: cell-based, human; conditions: 48 h, control 4.41%
Procedure: To further investigate the role of apoptosis in the antitumor activity of compound 5f, SMMC-7721 cells were treated with different concentrations of compound 5f (0, 0.3, 0.6, and 1.2 μM) for 48 h. Then the treated cells were stained with Annexin V-FITC/PI followed by flow cytometry analysis.
The extent of apoptosis was quantitatively measured using Annexin V-FITC/PI dual staining assay. SMMC-7721 cells were seeded into a six-well plate at 5 × 10^5 cells per well in 10% fetal calf serum (FBS)-DMEM into six-well plates and treated with different concentrations of the indicated compound 5f for 48 h. The cells were detached with 0.25% trypsin, washed with ice-cold PBS for twice and then resuspended in 1 × Binding buffer (0.1 M Hepes/NaOH (pH 7.4), 1.4 M NaCl, 25 mM CaCl2). The cells were stained with 5 μL of Annexin V-FITC and 5 μL of PI ([…]) to each tube. The cells were gently vortexed and incubated in the dark at room temperature for 15 min and then kept at 4 °C. The samples were analyzed by a flow cytometer (Becton-Dickinson FACSCalibur, Franklin Lakes, NJ, USA), and data were analyzed using the FlowJo software (Becton-Dickinson Biosciences, Franklin Lakes, NJ, USA).

With `Cc1ccc2[nH]c3c(c2c1)C[C@@]1(C)C(CC[C@]2(C)C1CC=C1C4[C@@H](C)[C@H](C)CC[C@]4(C(=O)NCCCN4CCN(C)CC4)CC[C@]12C)C3(C)C` (stereo partly drawn) [5f, N-(3-(4-Methylpiperazin-1-yl)propyl)-5′-methyl-1′H-ursa-2,12-dieno[3,2-b]indol-28-carboxamide] the “cells with elevated ROS levels (% relative ROS raised cells)” value (“cells … (% relative ROS raised cells)” below) ([1]; 0.3 μM) was 9.89%, the “cells … (% relative ROS raised cells)” value ([1]; 0.6 μM) was 19.84% and the “cells … (% relative ROS raised cells)” value ([1]; 1.2 μM) was 34.61%. It also gave an IC50 [2] of 0.91 ± 0.13 µM, an IC50 ([2]; Homo sapiens, HepG2, 48 h) of ~1 µM and an inhibition at 100 µM [3] of 0%. For the same compound, the “percentage of early and late apoptotic cells” value (shortened to “percentage”) ([4]; 0.3 μM) was 9.13%, the “percentage” value ([4]; 0.6 μM) was 21.36% and the “percentage” value ([4]; 1.2 μM) was 30.33%.
